The record followed here is PMC8002023, “3D Pharmacophore-Based Discovery of Novel KV10.1 Inhibitors with Antiproliferative Activity” (Cancers, 2021).

The target in this assay is T1, KV10.1 (Homo sapiens, UniProt O95259).
T1 construct: expressed in transfected cells
T1 sequence (O95259 1-962 isoform O95259-2): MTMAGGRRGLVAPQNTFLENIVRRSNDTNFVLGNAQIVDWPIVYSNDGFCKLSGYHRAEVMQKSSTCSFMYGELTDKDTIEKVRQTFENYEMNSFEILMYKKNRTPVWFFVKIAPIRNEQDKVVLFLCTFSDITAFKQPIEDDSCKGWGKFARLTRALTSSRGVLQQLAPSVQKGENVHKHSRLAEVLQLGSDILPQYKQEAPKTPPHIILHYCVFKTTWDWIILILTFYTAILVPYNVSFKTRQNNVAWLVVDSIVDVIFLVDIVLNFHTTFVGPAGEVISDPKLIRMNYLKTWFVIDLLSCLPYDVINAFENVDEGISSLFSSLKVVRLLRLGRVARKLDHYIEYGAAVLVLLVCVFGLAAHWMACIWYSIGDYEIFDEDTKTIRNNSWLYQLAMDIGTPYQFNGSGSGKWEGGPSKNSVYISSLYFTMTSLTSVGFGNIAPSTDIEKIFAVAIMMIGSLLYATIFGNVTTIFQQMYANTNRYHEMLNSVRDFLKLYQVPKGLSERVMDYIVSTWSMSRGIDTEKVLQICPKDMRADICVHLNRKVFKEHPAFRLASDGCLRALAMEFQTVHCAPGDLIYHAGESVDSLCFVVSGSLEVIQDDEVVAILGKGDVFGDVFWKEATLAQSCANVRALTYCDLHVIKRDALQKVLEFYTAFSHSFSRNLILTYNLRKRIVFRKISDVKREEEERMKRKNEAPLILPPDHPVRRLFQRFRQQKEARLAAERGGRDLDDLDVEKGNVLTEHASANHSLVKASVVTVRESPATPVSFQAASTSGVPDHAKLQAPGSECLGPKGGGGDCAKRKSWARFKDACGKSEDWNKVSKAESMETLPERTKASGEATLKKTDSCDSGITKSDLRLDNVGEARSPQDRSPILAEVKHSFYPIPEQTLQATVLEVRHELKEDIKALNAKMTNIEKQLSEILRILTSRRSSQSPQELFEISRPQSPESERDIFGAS
Briefly: Whole-cell patch clamp on HEK-293 cells stably expressing KV10.1. The format is cell-based. The note with it: HEK293; 10 μM; mean ± standard error (or range). (Patch clamp records ionic current or voltage across a cell membrane.)

Broadly, the inhibition is the share of the control response that was lost under treatment. A lower inhibition goes with a response near the control. Compound `O=[N+]([O-])c1cc(C(F)(F)F)ccc1Nc1ccc(OCC(O)CN2CCOCC2)cc1` (stereo not shown) [Compound 8] yielded an inhibition at 10 µM of 81.2 ± 4.97%.
